In patent US20150237857A1, “ANTIBACTERIAL INHIBITORS” (MCMASTER UNIVERSITY, priority 2012, published 2015):
Values after ≈ are worked out from the molar mass of the structure shown. “Also recorded” adds a separate entry of the source. Where two headings read alike, the source gives them in different places.

Key:
Mycobacteria smegmatis = assay: MIC against Mycobacteria smegmatis in absence and presence of biotin; format: cell-based
E. coli MG1655 [1] = assay: Minimum inhibitory concentration (MIC) determination; details: for MIC: Escherichia coli; for effect of intermediates of biotin biosynthesis on inhibitory activity (in words): KAPA, DAPA, DTB, biotin in media; for Fold suppression: MIC with supplement / MIC without
Procedure: The MIC values were determined in liquid minimal media and minimal media supplemented with amino acids, vitamins and nucleobases.
A single colony of E. coli MG1655 was grown overnight in 5 ml of M9 minimal media. The saturated culture was diluted 1/50 in fresh minimal media and allowed to grow until the OD600 reached ˜0.4. […] After mixing of the bacterial culture with the compounds, the OD600 of the plates was read using Envision to account for background absorbance. The plates were then incubated in a 37° C. stationary incubator for 16 hours before measuring their OD600. After subtracting any background absorbance contributed by colored or precipitated compounds, the MIC was defined as the lowest concentration of antibiotic that inhibits visible growth.

BioA = BioA (Escherichia coli, UniProt P12995); assay: UV-visible spectra of BioA titrated with inhibitor; format: binding, E. coli
Procedure: To further determine if the inhibition of BioA by MAC13772 is mediated through the interaction of the hydrazine moiety in the compound with PLP in the active site of the enzyme, the UV-visible spectra of BioA was assessed when titrated with the inhibitor.

recombinant E. coli BioA = recombinant E. coli BioA (Escherichia coli, UniProt P12995); assay: BioA inhibition through a feeding assay of a bioA auxotroph; format: biochemical
Procedure: To determine if the step catalyzed by BioA was the target of this inhibitor, the inhibitory activity of MAC-0013772 against recombinant E. coli BioA was assayed through a feeding assay of a bioA auxotroph.

Klebsiella pneumonia = assay: Activity against other organisms; format: cell-based
Procedure: (§1) The activity of MAC13772 was tested against a number of organisms in addition to Escherichia coli using methods similar to those described in Example 2.

Salmonella typhimurium = assay: Activity against other organisms; format: cell-based
Procedure: as §1

Staphylococcus aureus = assay: Activity against other organisms; format: cell-based
Procedure: as §1

[2] = test system: Mycobacterium tuberculosis; assay: Activity against other organisms; format: cell-based
Procedure: as §1

Bacillus subtilis = assay: Activity against other organisms; format: cell-based
Procedure: as §1

Acinetobacter baumannii = assay: Activity against other organisms; format: cell-based
Procedure: as §1

E. coli MG1655 [3] = assay: Metabolic suppression profiling (ChemArray); format: cell-based
[4] = test system: E. coli wild-type, ΔltaEΔtdh and ΔltaEΔtdhΔkbl strains
[5] = target: T1, recombinant PabA, PabB and PabC (Escherichia coli, UniProt P00903+P05041+P28305); assay: biochemical; set-up: species or system E. coli
T1 construct: poly-histidine (pDEST17) (N); made in house; host or cells: E. coli BL21AI (pDEST17, arabinose induction)
Procedure: Enzyme assays were conducted in triplicate at room temperature with 25 nM of PabA and PabB, 50 nM of PabC, 50 mM Tris-HCl (pH 7.5), 20 μM PLP, 1 mM L-glutamine, 40 μM chorismate and the indicated concentrations of MAC-173979. The inhibition assays were initiated by addition of a mixture of the three enzymes and quenched with an equal volume of freshly prepared 8M urea. The reaction progress curves were monitored every 10 minutes for 60 minutes and determined by a stopped HPLC-assay that allowed for the quantification of the conversion of chorismate to PABA. The two compounds were separated on a C18 reverse phase column (Nova-Pak C18, 4 μm, 3.9×150 mm, Waters) and eluted isocratically with 5% acetic acid in double distilled H2O. The analytes were visualized by UV absorbance at 275 nm and identified by comparing their retention times and UV absorption spectra to authentic standards. The progress curves were plotted to the rate equation of slow-binding inhibition: […]
using Sigma Plot 12.0 (SPSS, Inc., Chicago, Ill.), where v0 and vs are the initial and final steady-state reaction velocities, respectively, t is the time and kobs is the apparent first order rate constant for the interconversion between the initial and steady-state rates.
In order to directly test the biochemical activity of MAC-0173979 on PABA synthesis, an HPLC-based one-pot enzyme assay using recombinant PabA, PabB and PabC was set up and the formation of PABA was monitored by measuring its absorbance at 275 nm.
MAC173979 and an analog lacking the Michael acceptor (0-1000 μM) were each incubated with the PABA enzymes for 30 minutes prior to substrate addition. Reactions were quenched after 30 minutes with 8 M urea and analyzed by HPLC.

T1 sequence (P00903 whole entry): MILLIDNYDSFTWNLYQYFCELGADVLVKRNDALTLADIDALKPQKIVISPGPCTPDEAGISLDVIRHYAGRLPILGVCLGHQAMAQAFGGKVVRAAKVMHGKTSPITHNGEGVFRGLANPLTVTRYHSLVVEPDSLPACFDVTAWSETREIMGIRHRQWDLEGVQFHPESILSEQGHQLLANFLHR
T1 sequence (P05041 whole entry): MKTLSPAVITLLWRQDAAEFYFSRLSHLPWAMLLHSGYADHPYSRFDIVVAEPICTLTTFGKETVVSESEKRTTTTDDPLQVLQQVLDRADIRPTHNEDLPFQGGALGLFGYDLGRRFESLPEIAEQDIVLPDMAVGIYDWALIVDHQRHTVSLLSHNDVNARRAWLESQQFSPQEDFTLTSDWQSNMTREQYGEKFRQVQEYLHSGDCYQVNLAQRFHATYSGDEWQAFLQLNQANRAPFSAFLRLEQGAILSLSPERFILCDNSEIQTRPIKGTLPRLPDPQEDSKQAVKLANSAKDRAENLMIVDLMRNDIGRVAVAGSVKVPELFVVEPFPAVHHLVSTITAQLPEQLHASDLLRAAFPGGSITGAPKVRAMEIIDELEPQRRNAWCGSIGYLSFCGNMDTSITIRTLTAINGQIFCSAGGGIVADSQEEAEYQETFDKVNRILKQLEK
T1 sequence (P28305 whole entry): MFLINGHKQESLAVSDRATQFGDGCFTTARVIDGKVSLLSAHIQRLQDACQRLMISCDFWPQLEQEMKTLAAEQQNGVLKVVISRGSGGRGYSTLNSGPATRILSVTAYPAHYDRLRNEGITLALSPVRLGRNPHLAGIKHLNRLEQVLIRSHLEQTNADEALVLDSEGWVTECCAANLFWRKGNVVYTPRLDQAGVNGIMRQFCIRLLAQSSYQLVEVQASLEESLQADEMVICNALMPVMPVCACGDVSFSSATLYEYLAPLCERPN
Chain of BioA (P12995 whole entry): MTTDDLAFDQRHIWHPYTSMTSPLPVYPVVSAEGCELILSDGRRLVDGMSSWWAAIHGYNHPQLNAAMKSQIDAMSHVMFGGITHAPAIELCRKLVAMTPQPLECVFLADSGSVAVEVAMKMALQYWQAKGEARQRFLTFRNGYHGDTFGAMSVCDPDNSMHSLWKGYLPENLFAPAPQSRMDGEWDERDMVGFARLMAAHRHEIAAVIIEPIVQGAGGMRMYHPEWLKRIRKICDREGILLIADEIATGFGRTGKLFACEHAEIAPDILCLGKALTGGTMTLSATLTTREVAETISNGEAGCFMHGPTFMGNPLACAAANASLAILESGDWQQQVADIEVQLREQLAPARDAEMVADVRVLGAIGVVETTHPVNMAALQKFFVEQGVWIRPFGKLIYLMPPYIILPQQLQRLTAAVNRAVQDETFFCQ
Chain of recombinant E. coli BioA (P12995 whole entry): as above

SMILES: NNC(=O)CSc1ccccc1[N+](=O)[O-] [MAC13772, 2-(2-nitrophenylthio) acetohydrazide]
- MIC (Mycobacteria smegmatis; absence of biotin, read-out: MIC −bio): 4 µg/mL
- MIC (Mycobacteria smegmatis; presence of 2 nM of biotin, read-out: MIC +bio): > 256 µg/mL
- MIC (E. coli MG1655 [1]; MG1655, read-out: MIC −bio, absence of biotin): 8 µg/mL (≈ 35.2 µM)
- MIC (E. coli MG1655 [1]; MG1655, supplement: AA + VIT + NUC): > 256 µg/mL
- MIC (E. coli MG1655 [1]; MG1655, supplement: BIOTIN): > 256 µg/mL
- MIC (E. coli MG1655 [1]; MG1655, supplement: DAPA): > 256 µg/mL
- MIC (E. coli MG1655 [1]; MG1655, supplement: DTB): > 256 µg/mL
- MIC (E. coli MG1655 [1]; MG1655, supplement: KAPA): 8 µg/mL (≈ 35.2 µM)
- effect of intermediates of biotin biosynthesis on inhibitory activity (in words) (E. coli MG1655 [1]; listed as MAC-0013372): KAPA had no effect
- effect of intermediates of biotin biosynthesis on inhibitory activity (in words) (E. coli MG1655 [1]; listed as MAC-0013772): fully reversed by DAPA, DTB and biotin
- Fold suppression (E. coli MG1655 [1]; supplement: AA + VIT + NUC): 32
- Fold suppression (E. coli MG1655 [1]; supplement: BIOTIN): 32
- Fold suppression (E. coli MG1655 [1]; supplement: DAPA): 32
- Fold suppression (E. coli MG1655 [1]; supplement: DTB): 32
- Fold suppression (E. coli MG1655 [1]; supplement: KAPA): 1
- stoichiometry of protein-ligand interaction (molar ratio plot) (BioA; [inhibitor]/[BioA]): stoichiometric
- λmax of PLP-bound BioA after interaction with inhibitor (BioA; shift from 420 nm (internal aldimine) to PLP-inhibitor adduct): 393 nm
- IC50 (recombinant E. coli BioA): ~0.25 µM
- antibacterial activity (Klebsiella pneumonia): active
- antibacterial activity (Salmonella typhimurium): active
- antibacterial activity (Staphylococcus aureus): active
- antibacterial activity [2]: active
- antibacterial activity (Bacillus subtilis): active
- antibacterial activity (Acinetobacter baumannii): active
- suppression of growth inhibitory activity by biotin (E. coli MG1655 [3]; biotin in the growth media): uniquely suppressed by biotin

SMILES: COc1ccc(C(=O)CCN(C)C)cc1 [MAC-0168425, 3-(dimethylamino)-1-(4-methoxyphenyl)propan-1-one]
- suppression of growth inhibitory activity by L-serine (E. coli MG1655 [3]; 4× MIC in M9 minimal media, L-serine): not suppressed
- suppression of growth inhibitory activity by L-threonine (E. coli MG1655 [3]; 4× MIC in M9 minimal media, L-threonine): partially suppressed
- suppression of growth inhibitory activity by glycine (E. coli MG1655 [3]; 4× MIC in M9 minimal media, glycine): strongly suppressed
- fold shift in MIC ([4]; wild-type strain, 40-640 μg/ml L-threonine): 4-8 fold
- fold shift in MIC ([4]; ΔltaEΔtdh double deletion strain, 320-640 μg/ml L-threonine): 2 fold
- suppression of activity by L-threonine ([4]; ΔltaEΔtdhΔkbl triple deletion mutant): completely lost

SMILES: O=C(C=C(Cl)Cl)c1cccc([N+](=O)[O-])c1 [MAC-0173979, 3,3-dichloro-1-(3-nitrophenyl)prop-2-en-1-one]
- IC50 [5]: 30 ± 2 µM
- Ki [5]: 7.3 ± 1.3 µM
- mechanism of inhibition of PABA synthesis ([5]; progress curves, kobs plot): irreversible time-dependent inhibitor
- fold suppression of MIC on addition of PABA (E. coli MG1655 [1]; PABA added to the growth media): 16 fold
- suppression of growth inhibitory activity by p-aminobenzoic acid (PABA) (E. coli MG1655 [3]; 4× MIC in M9 minimal media, PABA in growth media): suppressed; also recorded: fully reversed
- suppression of growth inhibitory activity by methionine (E. coli MG1655 [3]; 4× MIC in M9 minimal media, methionine in growth media): to a certain extent; also recorded: fully reversed

SMILES: O=C(CC(Cl)Cl)c1cccc([N+](=O)[O-])c1 [analog lacking the Michael acceptor, 3,3-dichloro-1-(3-nitrophenyl)propan-1-one]
- IC50 [5]: 60 ± 7 µM
